Test results: ChEMBL document CHEMBL1201862, “PubChem BioAssay data set” (2004)
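A five-concentration, 48-hour dose response in 96-well plates underlies each endpoint, interpolated linearly between surrounding concentrations. GI50: concentration for 50% inhibition of growth.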 Activity calls are given as the source filed them. Rule as the data show it: active = GI50 up to about 1.1 µM and inactive = higher.

How the values were obtained:
Experiment in all cases: NCI anticancer screen, dose series, 48 h
A498 = tested on: A498
BT-549 = tested on: BT-549
CAKI-1 = tested on: CAKI-1
CCRF-CEM = tested on: CCRF-CEM
COLO 205 = tested on: COLO 205
HOP-92 = tested on: HOP-92
Hs-578T = tested on: Hs-578T
IGROV-1 = tested on: IGROV-1
KM12 = tested on: KM12
M14 = tested on: M14
OVCAR-8 = tested on: OVCAR-8
PC-3 = tested on: PC-3
SF-295 = tested on: SF-295
SK-MEL-2 = tested on: SK-MEL-2
SK-MEL-5 = tested on: SK-MEL-5
SNB-19 = tested on: SNB-19
SR = tested on: SR
U-251 = tested on: U-251
SNB-75 = tested on: SNB-75

Row | Compound | GI50 (A498) | GI50 (BT-549) | GI50 (CAKI-1) | GI50 (CCRF-CEM) | GI50 (COLO 205) | GI50 (HOP-92) | GI50 (Hs-578T) | GI50 (IGROV-1) | GI50 (KM12) | GI50 (M14) | GI50 (OVCAR-8) | GI50 (PC-3) | GI50 (SF-295) | GI50 (SK-MEL-2) | GI50 (SK-MEL-5) | GI50 (SNB-19) | GI50 (SR) | GI50 (U-251) | GI50 (SNB-75)
1 | CCc1n[nH]c(=O)n1NC(=O)CCCC(=O)O | > 100 µM (inactive) | > 100 µM (inactive) | > 100 µM (inactive) | > 100 µM (inactive) | > 100 µM (inactive) | > 100 µM (inactive) | > 100 µM (inactive) | > 100 µM (inactive) | > 100 µM (inactive) | > 100 µM (inactive) | > 100 µM (inactive) | > 100 µM (inactive) | > 100 µM (inactive) | > 100 µM (inactive) | > 100 µM (inactive) | > 100 µM (inactive) | > 100 µM (inactive) | > 100 µM (inactive) | –
2 | [N-]=[N+]=NCC1OCC(O)C(OCc2ccccc2)C1OCc1ccccc1 (stereo not given) | > 100 µM (inactive) | 28.9 µM (inactive) | > 100 µM (inactive) | 83.4 µM (inactive) | > 100 µM (inactive) | 65.3 µM (inactive) | > 100 µM (inactive) | 79.3 µM (inactive) | 41 µM (inactive) | > 100 µM (inactive) | > 100 µM (inactive) | 73.1 µM (inactive) | 79.3 µM (inactive) | 39.4 µM (inactive) | 95.9 µM (inactive) | > 100 µM (inactive) | 57.1 µM (inactive) | > 100 µM (inactive) | 20.5 µM (inactive)
3 | C=CCOC(=O)/C(=C\c1ccc(OC)c(OC)c1)c1ccc(OC)c(OC)c1 | 78.7 µM (inactive) | > 100 µM (inactive) | 62.2 µM (inactive) | 30.8 µM (inactive) | 27.5 µM (inactive) | 21.8 µM (inactive) | 39.1 µM (inactive) | > 100 µM (inactive) | 42.4 µM (inactive) | > 100 µM (inactive) | > 100 µM (inactive) | 33.1 µM (inactive) | 52.1 µM (inactive) | 47.9 µM (inactive) | 42.3 µM (inactive) | 59 µM (inactive) | 22 µM (inactive) | 52.4 µM (inactive) | 1.66 µM (inactive)
4 | CCCC(=O)[O-].[Na+] [SODIUM BUTYRATE] | 4400 µM (inactive) | 8040 µM (inactive) | 2770 µM (inactive) | 2050 µM (inactive) | 533 µM (inactive) | 5680 µM (inactive) | 251 µM (inactive) | 4450 µM (inactive) | 9440 µM (inactive) | 5460 µM (inactive) | 1990 µM (inactive) | 7100 µM (inactive) | 7660 µM (inactive) | 4720 µM (inactive) | 635 µM (inactive) | 8170 µM (inactive) | 789 µM (inactive) | 4790 µM (inactive) | 9680 µM (inactive)
5 | CC(C)N(CCCNc1c2ccccc2nc2cccc([N+](=O)[O-])c12)C(C)C | 0.0196 µM (active) | < 0.0196 µM (active) | < 0.0418 µM (active) | < 0.0173 µM (active) | 0.0101 µM (active) | 0.014 µM (active) | < 0.0257 µM (active) | < 0.0385 µM (active) | < 0.0188 µM (active) | 0.0125 µM (active) | < 0.0167 µM (active) | < 0.0203 µM (active) | < 0.0152 µM (active) | 0.0473 µM (active) | < 0.01 µM (active) | < 0.0224 µM (active) | < 0.01 µM (active) | < 0.0163 µM (active) | < 0.044 µM (active)
6 | [N-]=[N+]=NC1=C(c2ccccc2)C(=O)c2cccc3cccc1c23 | 1.52 µM (inactive) | 8.17 µM (inactive) | 33.6 µM (inactive) | 4.85 µM (inactive) | > 100 µM (inactive) | 17.7 µM (inactive) | 10.1 µM (inactive) | 15 µM (inactive) | 8.02 µM (inactive) | 8.3 µM (inactive) | – | 8.26 µM (inactive) | 11.2 µM (inactive) | 65 µM (inactive) | 2.77 µM (inactive) | 38.9 µM (inactive) | 11.4 µM (inactive) | > 100 µM (inactive) | 10.2 µM (inactive)
7 | O=[N+]([O-])/C=C/c1cc2ccccc2[nH]1 | 19.3 µM (inactive) | 15.6 µM (inactive) | 17.4 µM (inactive) | 2.99 µM (inactive) | 17.2 µM (inactive) | 19.8 µM (inactive) | 22.5 µM (inactive) | 12.2 µM (inactive) | 12.2 µM (inactive) | 12.5 µM (inactive) | 21.6 µM (inactive) | 15.2 µM (inactive) | 19.5 µM (inactive) | 19.3 µM (inactive) | 14.7 µM (inactive) | 17.5 µM (inactive) | 5.06 µM (inactive) | 12.4 µM (inactive) | 15.2 µM (inactive)
8 | COc1cccc(NC(=O)CC(=O)N2N=C(C)C(/N=N/c3ccc(S(=O)(=O)CCOS(=O)(=O)O)cc3)C2=O)c1 (stereo not given) | 10.8 µM (inactive) | 3.35 µM (inactive) | 2.45 µM (inactive) | 2.62 µM (inactive) | 7.1 µM (inactive) | 2.21 µM (inactive) | 14 µM (inactive) | 4.86 µM (inactive) | 11.6 µM (inactive) | 5.83 µM (inactive) | 3.18 µM (inactive) | 3.85 µM (inactive) | 15.3 µM (inactive) | 2.04 µM (inactive) | 3.52 µM (inactive) | 17 µM (inactive) | 1.45 µM (inactive) | 4.89 µM (inactive) | 3.27 µM (inactive)
9 | CCOC(=O)c1c(C)n(-c2ccc(Cl)cc2)c2c1cc(O)c1[nH]c3c(c12)CCCC3 | 73.1 µM (inactive) | 52.7 µM (inactive) | > 100 µM (inactive) | 32.4 µM (inactive) | 48.8 µM (inactive) | 38.5 µM (inactive) | 22.5 µM (inactive) | 44.4 µM (inactive) | 29 µM (inactive) | 57.3 µM (inactive) | 55.6 µM (inactive) | 41 µM (inactive) | 52.8 µM (inactive) | 29.6 µM (inactive) | 21.6 µM (inactive) | 46.3 µM (inactive) | 3.87 µM (inactive) | 38.3 µM (inactive) | 44 µM (inactive)
10 | O=C(/C=C/c1ccsc1)c1cccs1 | > 100 µM (inactive) | 20.8 µM (inactive) | 27.3 µM (inactive) | 18.5 µM (inactive) | 34.1 µM (inactive) | 29.4 µM (inactive) | 40.3 µM (inactive) | 53.2 µM (inactive) | 19.4 µM (inactive) | 22.8 µM (inactive) | > 10 µM (inactive) | 69.5 µM (inactive) | 64.7 µM (inactive) | – | 14.6 µM (inactive) | 42.6 µM (inactive) | > 10 µM (inactive) | 20.5 µM (inactive) | > 100 µM (inactive)
11 | N=C(N)SC1c2ccccc2-c2cc([N+](=O)[O-])ccc21 (stereo not given) | 3.62 µM (inactive) | 6.05 µM (inactive) | 6.1 µM (inactive) | 3.3 µM (inactive) | 2.94 µM (inactive) | 13.7 µM (inactive) | 3.1 µM (inactive) | 5.62 µM (inactive) | 3.23 µM (inactive) | 5.15 µM (inactive) | 8.99 µM (inactive) | 3.78 µM (inactive) | 4.01 µM (inactive) | 3.51 µM (inactive) | 3.08 µM (inactive) | 3.66 µM (inactive) | 3.86 µM (inactive) | 2.75 µM (inactive) | 2.02 µM (inactive)
12 | O=C(Cc1ccc(Cl)cc1)Nc1ccc2oc(-c3ccccc3)nc2c1 | > 100 µM (inactive) | > 100 µM (inactive) | > 100 µM (inactive) | > 100 µM (inactive) | > 100 µM (inactive) | > 100 µM (inactive) | > 100 µM (inactive) | > 100 µM (inactive) | > 100 µM (inactive) | > 100 µM (inactive) | 32.7 µM (inactive) | > 100 µM (inactive) | > 100 µM (inactive) | 89.1 µM (inactive) | > 100 µM (inactive) | 38.9 µM (inactive) | > 100 µM (inactive) | 56.1 µM (inactive) | 24.4 µM (inactive)
13 | COc1cc2c(cc1-c1coc3cc(OCC=C(C)C)ccc3c1=O)OCO2 | 33.4 µM (inactive) | 16.8 µM (inactive) | 19.8 µM (inactive) | > 10 µM (inactive) | 29.4 µM (inactive) | 37.3 µM (inactive) | 28.8 µM (inactive) | 30.8 µM (inactive) | 13.8 µM (inactive) | 26.8 µM (inactive) | – | 42.8 µM (inactive) | 33.6 µM (inactive) | 48.1 µM (inactive) | 16.8 µM (inactive) | 27.4 µM (inactive) | 6.32 µM (inactive) | 35.2 µM (inactive) | 31 µM (inactive)
14 | COc1c2ccoc2c(OC)c2oc(=O)ccc12 [ISOPIMPINELLIN] | > 100 µM (inactive) | > 100 µM (inactive) | 50.5 µM (inactive) | > 100 µM (inactive) | > 100 µM (inactive) | 1.99 µM (inactive) | 62.1 µM (inactive) | > 100 µM (inactive) | > 100 µM (inactive) | > 100 µM (inactive) | > 100 µM (inactive) | > 100 µM (inactive) | > 100 µM (inactive) | – | 94.4 µM (inactive) | > 100 µM (inactive) | > 100 µM (inactive) | > 100 µM (inactive) | 13.1 µM (inactive)
15 | CC(C)(C)c1cc(C2=NN(c3ccccc3)C(c3ccccc3)C2)cc(C(C)(C)C)c1O (stereo not given) | > 100 µM (inactive) | > 100 µM (inactive) | > 100 µM (inactive) | 19.1 µM (inactive) | 35.7 µM (inactive) | > 100 µM (inactive) | > 100 µM (inactive) | > 100 µM (inactive) | > 100 µM (inactive) | > 100 µM (inactive) | > 100 µM (inactive) | > 100 µM (inactive) | > 100 µM (inactive) | > 100 µM (inactive) | > 100 µM (inactive) | > 100 µM (inactive) | 29.3 µM (inactive) | > 100 µM (inactive) | > 100 µM (inactive)
